From patent US20260116867A1, “PROTEOLYSIS TARGETING CHIMERAS FOR HUMAN PREGNANE X RECEPTOR AND FOR DEGRADATION OF GSPT1” (ST. JUDE CHILDREN'S RESEARCH HOSPITAL, priority 2022, published 2026)

How the values were obtained:
PXR [1] = target: T1, PXR (Homo sapiens, UniProt O75469); test: hPXR binding assay
T1 sequence (O75469 1-434): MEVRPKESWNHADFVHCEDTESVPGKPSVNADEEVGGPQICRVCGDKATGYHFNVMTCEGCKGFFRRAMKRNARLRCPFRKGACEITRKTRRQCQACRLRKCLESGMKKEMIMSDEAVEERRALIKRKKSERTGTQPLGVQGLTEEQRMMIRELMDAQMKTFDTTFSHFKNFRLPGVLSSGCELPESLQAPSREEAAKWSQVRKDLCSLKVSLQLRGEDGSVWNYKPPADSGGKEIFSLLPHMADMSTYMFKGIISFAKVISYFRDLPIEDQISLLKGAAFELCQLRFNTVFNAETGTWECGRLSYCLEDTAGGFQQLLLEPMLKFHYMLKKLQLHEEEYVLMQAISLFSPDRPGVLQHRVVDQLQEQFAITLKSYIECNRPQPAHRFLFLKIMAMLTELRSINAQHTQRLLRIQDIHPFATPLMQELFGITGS

PXR [2] = target: T1, PXR; test: cell-based hPXR agonistic assay
PXR [3] = target: T1, PXR; test: cell-based hPXR antagonistic assay
[4] = test system: SNU—C4 3xFLAG-PXR KI cell lines stably expressing HA-tagged GSPT1^G575N; test: Cytotoxicity assay in cells overexpressing degradation-resistant GSPT1 mutant; format: cell-based, human; details: FIG. 7B-C
Description: Complete information for all plasmids is included in Table 1 below. […] Lentiviruses for pCDH-GSPT1 or pCDH-GSPT1^G575N were generated in 293T cells using psPAX2 and pMD2.G packaging vectors. The packaging vectors were gifts from Dr. Didier Trono (Addgene plasmid #12259 and 12260).
(§1) The indicated cells (2.5×10^3/well in 40 μL RPMI with 10% FBS) were plated in the 384-well plates, resulting in 0.5% DMSO and the indicated concentrations of chemicals. After 72 h compound treatment, the CellTiter-Glo Luminescent Cell Viability Assay (Promega) and an EnVision microplate reader were used to assess cytotoxicity. Wells containing DMSO alone or 10 μM staurosporine served as negative and positive controls, respectively. The percent cell viability for each well was calculated using equation 1: […]

PXR [5] = target: T1, PXR; test: Western blot of endogenous 3xFLAG-PXR protein in SNU—C4 3xFLAG-PXR KI cells; format: cell-based; design: To assess SJPYT-195 activity against endogenous PXR, CRISPR-Cas9 was used; endogenous in cells; details: western blot, SNU—C4 3xFLAG-PXR KI cells
Description: The following day, DMSO or compounds were added to result in 0.5% DMSO and the indicated compound concentrations, and cells were incubated for the indicated time points. Cells were lysed and subjected to western blotting as above using antibodies against FLAG (Sigma-Aldrich, cat. #F3165, 1:2,000 dilution), GSPT1 (Abcam, cat. #ab126090, 1:4,000 dilution), and R-Actin (Cell Signaling Technology, cat. #4967, 1:2,000 dilution).

[6] = test system: SNU—C4 3xFLAG-PXR KI cells; test: Cytotoxicity assay (CellTiter-Glo, 72 h); format: cell-based, human; details: SNU—C4 3xFLAG-PXR KI cells, 72 h, FIG. 7A; read-out: half maximal cytotoxic concentration (CC50)
Description: as §1

HiBiT-FKBP12^F36V-PXR = target: T2, HiBiT-FKBP12^F36V-PXR (Homo sapiens, UniProt O75469+P62942, F37V); test: HiBiT assay for degradation of overexpressed protein in HepG2 cells; format: cell-based; details: FIG. 2C
T2 construct: expressed in transfected cells; host or cells: HepG2 cells (transient, Lipofectamine 3000)
Description: HepG2 cells (5×10^6 cells/dish) were plated in tissue culture-treated 10 cm dishes in 10 mL EMEM with 10% FBS. The next day, cells were transfected with 5 μg pcDNA3-HiBiT-FKBP^F36V-2xHA-PXR and either 5 μg pcDNA3 vector or 5 μg pcDNA3-HA-CRBN using Lipofectamine 3000 (Thermo Fisher Scientific). After 24 h, cells were trypsinized, resuspended in assay media, and plated in white tissue culture-treated 384-well plates (1.5×10^4 cells/well in 25 μL medium). […] The plates were incubated for 24 h, and the Nano-Glo HiBiT Lytic Detection System (Promega) and an EnVision microplate reader were used to measure HiBiT signal. Results are reported as fold change relative to DMSO control cells.
To establish a method for discovery of PXR degraders in the absence of a known PXR-degrading control, the degradation tag (dTAG) system was used. With this method, a protein of interest (PXR) is fused to a cytosolic prolyl isomerase, FKBP12, with Phe36 mutated to Val (FKBP12^F36V) (FIG. 2A). A PROTAC molecule, dTAG-13 (FIG. 2B), is then used to induce degradation of the fusion protein through recruitment of the CUL4-RBX1-DDB1-CRBN (CRL4^CRBN) E3 ubiquitin ligase, without affecting the cellular FKBP12 protein. An HA tag was added for western blot detection, and a HiBiT tag was fused to the N-terminus to allow high-throughput plate-based quantification of HiBiT-FKBP12^F36V-PXR protein levels (FIG. 2A). […] This was also observed when the HA tag was detected by western blot (FIG. 2D). The HiBiT detection was more sensitive to protein level changes than western blot, and, importantly, overexpression of CRBN was required to achieve dTAG-13-mediated degradation of the overexpressed HiBiT-FKBP12^F36V-PXR protein.

T2 sequence (P62942+O75469 fused P62942:F37V): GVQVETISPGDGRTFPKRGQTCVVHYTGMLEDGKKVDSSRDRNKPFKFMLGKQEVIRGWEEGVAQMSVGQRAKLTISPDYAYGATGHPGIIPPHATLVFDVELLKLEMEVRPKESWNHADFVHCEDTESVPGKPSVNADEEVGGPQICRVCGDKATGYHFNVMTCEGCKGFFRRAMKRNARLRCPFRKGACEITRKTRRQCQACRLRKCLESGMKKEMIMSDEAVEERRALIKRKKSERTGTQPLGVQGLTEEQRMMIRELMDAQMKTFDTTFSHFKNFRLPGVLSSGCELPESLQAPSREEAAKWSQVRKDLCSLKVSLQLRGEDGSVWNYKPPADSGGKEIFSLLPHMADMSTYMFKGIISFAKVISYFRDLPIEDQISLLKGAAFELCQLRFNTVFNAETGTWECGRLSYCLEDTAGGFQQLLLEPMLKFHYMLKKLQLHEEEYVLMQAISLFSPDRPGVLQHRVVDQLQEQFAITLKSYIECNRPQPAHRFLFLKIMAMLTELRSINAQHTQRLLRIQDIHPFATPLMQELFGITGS
T2 sequence (Q96SW2 whole entry partner): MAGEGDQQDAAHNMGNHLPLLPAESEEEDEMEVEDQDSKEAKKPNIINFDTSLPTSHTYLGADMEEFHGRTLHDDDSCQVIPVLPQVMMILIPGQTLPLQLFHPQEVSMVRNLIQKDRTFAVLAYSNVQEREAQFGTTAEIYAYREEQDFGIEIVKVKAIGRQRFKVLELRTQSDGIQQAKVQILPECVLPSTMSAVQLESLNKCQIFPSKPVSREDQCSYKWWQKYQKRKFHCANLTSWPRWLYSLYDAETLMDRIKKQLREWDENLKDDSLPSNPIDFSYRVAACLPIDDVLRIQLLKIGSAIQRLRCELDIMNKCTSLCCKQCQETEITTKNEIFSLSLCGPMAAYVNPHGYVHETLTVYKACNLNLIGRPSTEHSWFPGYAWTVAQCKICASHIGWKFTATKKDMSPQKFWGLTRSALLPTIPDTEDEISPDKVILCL

COc1ccc(OC)c(-n2nnc(C(=O)Nc3cc(C(C)(C)C)ccc3OCCCCOc3cccc4c3C(=O)N(C3CCC(=O)NC3=O)C4=O)c2C)c1 (centres unmarked) [Compound M12, N-(5-(tert-butyl)-2-(4-((2-(2,6-dioxopiperidin-3-yl)-1,3-dioxoisoindolin-4-yl)oxy)butoxy)phenyl)-1-(2,5-dimethoxyphenyl)-5-methyl-1H-1,2,3-triazole-4-carboxamide]
IC50 (PXR [1]): 0.032 ± 0.002 µM | inhibition at 10 µM (PXR [1]; read-out: Binding (% inhibition at 10 μM)): 56% | Agonist (% activation at 10 μM) (PXR [2]; 10 μM, rifampicin at 10 μM as 100% activation, DMSO (0.3%) as 0%): (33 ± 1)% | EC50 (PXR [2]; NA = no value within concentration range tested (highest 30 μM), read-out: Agonist (EC50/μM)): 0.27 ± 0.078 µM | inhibition at 10 µM (PXR [3]; read-out: Antagonist (% inhibition at 10 μM)): 28% | IC50 (PXR [3]; read-out: Antagonist (IC50/μM)): 0.67 ± 0.26 µM

Cc1ccc(NC(=O)NCc2ccc3c(c2)CN(C2CCC(=O)NC2=O)C3=O)cc1Cl (centres unmarked) [CC-885, reference compound]
cytotoxicity in cells overexpressing GSPT1^G575N [4]: partially resistant | PXR protein level (in words) (PXR [5]): also reduced PXR protein | CC50 [6]: 3.3 ± 0.3 nM

CC[C@H](C(=O)N1CCCC[C@H]1C(=O)O[C@H](CCc1ccc(OC)c(OC)c1)c1ccccc1OCC(=O)NCCCCCCOc1cccc2c1C(=O)N(C1CCC(=O)NC1=O)C2=O)c1cc(OC)c(OC)c(OC)c1 (some centres unmarked) [dTAG-13]
HiBiT signal, CRBN co-overexpressed (HiBiT-FKBP12^F36V-PXR; HepG2 overexpressing HiBiT-FKBP12^F36V-PXR and CRBN): potently reduced HiBiT signal | HiBiT signal, without CRBN co-overexpression (HiBiT-FKBP12^F36V-PXR; HepG2 overexpressing HiBiT-FKBP12^F36V-PXR): only a slight reduction in HiBiT signal
